Literature values, collected in patent US5618841A, “Composition of iodophor teat dip for the prevention of mastitis and a process for using the same” (priority 1994, dated 1997).

What was measured:
[1] = 25° C.
microorganism = settings: rank order
[2] = first ionization constant

## II [elemental iodine]
[1]
  solubility in water: 0.03%

## O=C(O)C(O)c1ccccc1 (stereo not drawn) [Mandelic acid]
microorganism
  relative antimicrobial strength, with respect to citric acid: Mandelic acid>Lactic acid>Glycolic acid>Malic acid>Citric acid
[2]
  pKa: 3.39

## CC(O)C(=O)O (stereo not drawn) [Lactic acid]
microorganism
  relative antimicrobial strength, with respect to citric acid: Mandelic acid>Lactic acid>Glycolic acid>Malic acid>Citric acid

## O=C(O)CO [Glycolic acid]
microorganism
  relative antimicrobial strength, with respect to citric acid: Mandelic acid>Lactic acid>Glycolic acid>Malic acid>Citric acid

## O=C(O)CC(O)C(=O)O (stereo not drawn) [Malic acid]
microorganism
  relative antimicrobial strength, with respect to citric acid: Mandelic acid>Lactic acid>Glycolic acid>Malic acid>Citric acid
